Assay results: ChEMBL document CHEMBL3774317, “Design and synthesis of novel tamoxifen analogues that avoid CYP2D6 metabolism” (Eur J Med Chem, 2016)

Columns and labels:
786-0 = experiment: Cytotoxicity against human 786-0 cells assessed as cell growth at 10^-7 M after 48 hrs by SRB assay; type: functional; conditions: 786-0, 48 h, read-out: Activity
MCF7 [1] = experiment: Cytotoxicity against human MCF7 cells assessed as cell growth at 10^-7 M after 48 hrs by SRB assay; type: functional; conditions: MCF7, 48 h, read-out: Activity
NCI-H226 = experiment: Cytotoxicity against human NCI-H226 cells assessed as cell growth at 10^-6 M after 48 hrs by SRB assay; type: functional; conditions: NCI-H226, 48 h, read-out: Activity
[2] = Cytotoxicity against human RXF393 cells assessed as cell growth at 10^-4 M after 48 hrs by SRB assay; type: functional; conditions: RXF 393, 48 h, read-out: Activity
SN12C = experiment: Cytotoxicity against human SN12C cells assessed as cell growth at 10^-4 M after 48 hrs by SRB assay; type: functional; conditions: read-out: Activity
MCF7 [3] = experiment: Cytotoxicity against human MCF7 cells assessed as cell growth at 10^-4 M after 48 hrs by SRB assay; type: functional; conditions: MCF7, 48 h, read-out: Activity
[4] = Cytotoxicity against human Hs 578T cells assessed as cell growth at 10^-4 M after 48 hrs by SRB assay; type: functional; conditions: read-out: Activity
[5] = Cytotoxicity against human MOLT4 cells assessed as growth inhibition after 48 hrs by SRB assay; type: functional; conditions: MOLT-4, 48 h
NCI-H23 [6] = experiment: Cytotoxicity against human NCI-H23 cells assessed as growth inhibition after 48 hrs by SRB assay; type: functional; conditions: NCI-H23, 48 h; for CC50: read-out: LC50 (the source's name)
CCRF-CEM = experiment: Cytotoxicity against human CCRF-CEM cells assessed as cell growth at 10^-8 M after 48 hrs by SRB assay; type: functional; conditions: read-out: Activity
[7] = Cytotoxicity against human OVCAR5 cells assessed as growth inhibition after 48 hrs by SRB assay; type: functional; conditions: OVCAR-5, 48 h
[8] = Cytotoxicity against human OVCAR8 cells assessed as growth inhibition after 48 hrs by SRB assay; type: functional; conditions: OVCAR-8, 48 h; for CC50: read-out: LC50 (the source's name)
[9] = Cytotoxicity against human IGROV1 cells assessed as cell growth at 10^-6 M after 48 hrs by SRB assay; type: functional; conditions: IGROV-1, 48 h, read-out: Activity
[10] = Cytotoxicity against human Hs 578T cells assessed as cell growth at 10^-6 M after 48 hrs by SRB assay; type: functional; conditions: read-out: Activity
[11] = Cytotoxicity against human HL-60(TB) cells assessed as cell growth at 10^-5 M after 48 hrs by SRB assay; type: functional; conditions: HL-60, 48 h, read-out: Activity
NCI-H23 [12] = experiment: Cytotoxicity against human NCI-H23 cells assessed as cell growth at 10^-8 M after 48 hrs by SRB assay; type: functional; conditions: NCI-H23, 48 h, read-out: Activity
[13] = Cytotoxicity against human SF268 cells assessed as cell growth at 10^-8 M after 48 hrs by SRB assay; type: functional; conditions: SF-268, 48 h, read-out: Activity
[14] = Cytotoxicity against human TK10 cells assessed as growth inhibition after 48 hrs by SRB assay; type: functional; conditions: TK-10, 48 h
A498 = experiment: Cytotoxicity against human A498 cells assessed as cell growth at 10^-8 M after 48 hrs by SRB assay; type: functional; conditions: A498, 48 h, read-out: Activity
[15] = Cytotoxicity against human HL-60(TB) cells assessed as cell growth at 10^-7 M after 48 hrs by SRB assay; type: functional; conditions: HL-60, 48 h, read-out: Activity
[16] = Cytotoxicity against human RPMI8226 cells assessed as cell growth at 10^-7 M after 48 hrs by SRB assay; type: functional; conditions: RPMI-8226, 48 h, read-out: Activity
[17] = Cytotoxicity against human OVCAR4 cells assessed as cell growth at 10^-5 M after 48 hrs by SRB assay; type: functional; conditions: OVCAR-4, 48 h, read-out: Activity
[18] = Cytotoxicity against human HCT15 cells assessed as cell growth at 10^-4 M after 48 hrs by SRB assay; type: functional; conditions: HCT-15, 48 h, read-out: Activity
[19] = Cytotoxicity against human SF295 cells assessed as cell growth at 10^-4 M after 48 hrs by SRB assay; type: functional; conditions: SF-295, 48 h, read-out: Activity
[20] = Cytotoxicity against human IGROV1 cells assessed as cell growth at 10^-4 M after 48 hrs by SRB assay; type: functional; conditions: IGROV-1, 48 h, read-out: Activity
Malme-3M = experiment: Cytotoxicity against human MALME-3M cells assessed as cell growth at 50 nM after 48 hrs by SRB assay; type: functional; conditions: read-out: Activity
M14 = experiment: Cytotoxicity against human M14 cells assessed as cell growth at 50 nM after 48 hrs by SRB assay; type: functional; conditions: M14, 48 h, read-out: Activity
[21] = Cytotoxicity against human UACC62 cells assessed as cell growth at 50 nM after 48 hrs by SRB assay; type: functional; conditions: UACC-62, 48 h, read-out: Activity
[22] = Cytotoxicity against human OVCAR5 cells assessed as cell growth at 50 nM after 48 hrs by SRB assay; type: functional; conditions: OVCAR-5, 48 h, read-out: Activity
[23] = Cytotoxicity against human RXF393 cells assessed as cell growth at 50 nM after 48 hrs by SRB assay; type: functional; conditions: RXF 393, 48 h, read-out: Activity
[24] = Cytotoxicity against human HL-60(TB) cells assessed as cell growth at 0.5 uM after 48 hrs by SRB assay; type: functional; conditions: HL-60, 48 h, read-out: Activity
[25] = Metabolic stability in human hepatocytes assessed as remaining parent compound level at 10 uM after 3 hrs by LC/MS analysis; type: ADME, cell-based, Hepatocyte; conditions: read-out: Drug metabolism
[26] = Cytotoxicity against human HOP92 cells assessed as cell growth at 0.5 uM after 48 hrs by SRB assay; type: functional; conditions: HOP-92, 48 h, read-out: Activity
NCI-H522 = experiment: Cytotoxicity against human NCI-H522 cells assessed as cell growth at 0.5 uM after 48 hrs by SRB assay; type: functional; conditions: NCI-H522, 48 h, read-out: Activity
[27] = Cytotoxicity against human COLO205 cells assessed as cell growth at 0.5 uM after 48 hrs by SRB assay; type: functional; conditions: COLO 205, 48 h, read-out: Activity
[28] = Cytotoxicity against human Caki1 cells assessed as cell growth at 0.5 uM after 48 hrs by SRB assay; type: functional; conditions: CAKI-1, 48 h, read-out: Activity
[29] = Cytotoxicity against human HOP92 cells assessed as cell growth at 5 uM after 48 hrs by SRB assay; type: functional; conditions: HOP-92, 48 h, read-out: Activity
[30] = Cytotoxicity against human SNB19 cells assessed as cell growth at 5 nM after 48 hrs by SRB assay; type: functional; conditions: SNB-19, 48 h, read-out: Activity
[31] = Cytotoxicity against human LOXIMVI cells assessed as cell growth at 5 uM after 48 hrs by SRB assay; type: functional; conditions: LOX IMVI, read-out: Activity
T47D = experiment: Cytotoxicity against human T47D cells assessed as cell growth at 5 uM after 48 hrs by SRB assay; type: functional; conditions: read-out: Activity

`C/C(=C(/c1ccc(O)cc1)c1ccc(OCCN2CCCC2)cc1)c1ccccc1` gave a growth at 0.1 µM (786-0) of 99%, a growth at 0.1 µM (MCF7 [1]) of 44% and a growth at 1 µM (NCI-H226) of 91%. It also gave a growth at 100 µM [2] of -81%, a growth at 100 µM (SN12C) of -69% and a growth at 100 µM (MCF7 [3]) of -66%. For the same molecule, the growth at 100 µM [4] was -43%, the GI50 [5] was 2.94 µM and the LC50 [5] was 67.2 µM. For the same molecule, the TGI [5] was 11 µM, the GI50 (NCI-H23 [6]) was 4.31 µM and the TGI (NCI-H23 [6]) was 18.2 µM. The CC50 (NCI-H23 [6]) was 50.8 µM, the growth at 0.01 µM (CCRF-CEM) was 110% and the GI50 [7] was 7.99 µM. It also gave an LC50 (concentration killing 50% of cells) [7] of 54.2 µM, a TGI [7] of 22.5 µM and a GI50 [8] of 5.73 µM. It also gave a TGI [8] of 23.1 µM, a CC50 [8] of 77.2 µM and a growth at 1 µM [9] of 95%. It also gave a growth at 1 µM [10] of 95%, a growth at 10 µM [11] of -39% and a growth at 0.01 µM (NCI-H23 [12]) of 92%. For the same molecule, the growth at 0.01 µM [13] was 98%, the GI50 [14] was 4.61 µM and the LC50 [14] was 40.7 µM. The TGI [14] was 16.4 µM, the growth at 0.01 µM (A498) was 66% and the growth at 0.1 µM [15] was 99%. The growth at 0.1 µM [16] was 103%, the growth at 10 µM [17] was 31% and the growth at 100 µM [18] was -100%. For the same molecule, the growth at 100 µM [19] was -95% and the growth at 100 µM [20] was -54%.

`CCCCCCCCCC(=O)Oc1ccc(/C(=C(/C)c2ccccc2)c2ccc(OCCN3CCCC3)cc2)cc1` showed a growth at 0.05 µM (Malme-3M) of 98%, a growth at 0.05 µM (M14) of 94% and a growth at 0.05 µM [21] of 99%. The growth at 0.05 µM [22] was 94%, the growth at 0.05 µM [23] was 100% and the growth at 0.5 µM [24] was 75%. It also gave a remaining at 3 h, 10 µM [25] of 36%, a GI50 [5] of 8.61 µM and an LC50 [5] of 47.7 µM. For the same molecule, the TGI [5] was 20.3 µM, the GI50 (NCI-H23 [6]) was 7.74 µM and the TGI (NCI-H23 [6]) was 16.1 µM. It also gave a CC50 (NCI-H23 [6]) of 33.4 µM, a GI50 [7] of 8.56 µM and an LC50 (concentration killing 50% of cells) [7] of 31.8 µM. It also gave a TGI [7] of 16.5 µM, a GI50 [8] of 9.78 µM and a TGI [8] of 20.8 µM. The CC50 [8] was 44.2 µM, the growth at 0.5 µM [26] was 64% and the growth at 0.5 µM (NCI-H522) was 98%. The growth at 0.5 µM [27] was 44%, the growth at 0.5 µM [28] was 75% and the growth at 5 µM [29] was 72%. The GI50 [14] was 8.86 µM, the LC50 [14] was 31.3 µM and the TGI [14] was 16.7 µM. It also gave a growth at 0.005 µM [30] of 98%, a growth at 5 µM [31] of 89% and a growth at 5 µM (T47D) of 52%.
